Consider 10 molecules from US20240336615A1, “CYCLOPROPYL-(HETERO)ARYL-SUBSTITUTED ETHYL-SULFOXIME-PYRIDINE DERIVATIVES” (Boehringer Ingelheim Vetmedica GmbH, priority 2023, published 2024).

Test [1] has as its system adult Ctenocephalides felis fleas. The test can be described thus: Contact activity against adult Ctenocephalides felis (Example 4). The note with it: adult C. felis, coated pipe cleaner in vial, 72 hours post-treatment, read-out: EC50 (contact activity, percentage mortality). As to the method: Compounds of formulae (I), (Ia) and/or (Ib) dissolved in 100% DMSO are diluted in acetone to a desired concentration. The resulting formulation is used to coat the fibers of a 0.5-inch-long piece of pipe cleaner placed in a glass scintillation vial. The vial is capped with a rubber gasket and filter paper insert. After the acetone has evaporated, ten adult Ctenocephalides felis fleas are added to each vial. The vials are then incubated at 22° C., 80% relative humidity, and 12 hours of light/12 hours of dark until a visual evaluation for mortality is performed at 72 hours post-treatment. Compound efficacy at a given dose is expressed as percentage mortality and adjusted to remove background mortality observed in control vials containing DMSO only. A dose response series of treated vials is implemented to determine EC50 values.

The subject of test [2] is adult C. felis fleas. The test can be described thus: Ingestion activity against adult Ctenocephalides felis, membrane feeding, motility (Example 6). The settings on record: 48 h, bovine blood via artificial membrane, 48h post treatment, read-out: EC50 (ingestion activity, % motility reduction). As to the method: Compounds of formulae (I), (Ia) and/or (Ib) dissolved in 100% DMSO are added to bovine blood and offered via an artificial membrane feeding system to adult C. felis fleas. The motility of fleas is then visually inspected 48h post treatment. Efficacy is expressed in % motility reduction compared to controls containing blood treated with DMSO only. A dose response series is implemented to determine EC50 values.

The test system of test [3] is adult C. felis fleas. The test can be described thus: Ingestion activity against adult Ctenocephalides felis, membrane feeding, alternative method (Examples 7 and 13). The settings on record: Ctenocephalides felis. On the procedure: Selected compounds of formula (I), (Ia) and (Ib) and compound “125” of WO 2021/033141 dissolved in 100% DMSO are diluted in bovine blood with sodium heparin anti-coagulant. The resulting formulation is offered via an artificial membrane feeding system to approximately 15 adult C. felis fleas previously dispensed into 24-well plates. The plates are then incubated in a double-chambered device. Visual evaluation for mortality is performed at 48 hours post-treatment. Compound efficacy at a given dose is expressed as percentage mortality and determined by normalization to positive and negative controls. A dose response series is implemented to determine EC50 values.
Compounds of formulae (I), (Ia) and/or (Ib) dissolved in 100% DMSO are diluted in bovine blood with sodium heparin anti-coagulant. The resulting formulation is offered via an artificial membrane feeding system to approximately 15 adult C. felis fleas previously dispensed into 24-well plates. The plates are then incubated in a double-chambered device. Visual evaluation for mortality is performed at 48 hours post-treatment. Compound efficacy at a given dose is expressed as percentage mortality and determined by normalization to positive and negative controls. A dose response series is implemented to determine EC50 values.

A further test deals with Spodoptera litura. In words: Insecticidal test on Spodoptera litura (Example 14). The settings on record: foliar, 192 h, cabbage leaf dip, 2nd-instar larvae, 8 days after inoculation, read-out: activity level (corrected mortality rate). Type of test: in vivo. On the procedure:
The compounds of formula (I), (Ia) and/or (Ib) of the present invention or salts thereof are separately dispersed in water and diluted to 500 ppm and 50 ppm. Cabbage leaves are dipped in the dispersion for about 30 seconds. After air dried, the leaves are placed in a plastic Petri dish with a diameter of 9 cm and inoculated with ten 2nd-instar larvae of Spodoptera litura, after which the dish is closed and then allowed to stand in a room at 25° C. 8 days after the inoculation, the numbers of the dead and alive insects are counted. The corrected mortality rate is calculated according to the following formula and the insecticidal activity is evaluated according to the following criteria.
[formula] [formula] • A: the corrected mortality rate is 100% • B: the corrected mortality rate is 90 to 99% • C: the corrected mortality rate is 80 to 89% • D: the corrected mortality rate is 50 to 79%

Another test deals with Plutella xylostella. The test can be described thus: Insecticidal test on Plutella xylostella (Example 15). Type of test: in vivo. The settings on record: 144 h, Chinese cabbage seedling dip, 6 days after dip treatment, read-out: activity level (corrected mortality rate). On the procedure:
The compounds of formula (I), (Ia) and/or (Ib) of the present invention or salts thereof are separately dispersed in water and diluted to 500 ppm and 50 ppm. Ten adults of Plutella xylostella are released onto Chinese cabbage seedlings and allowed to lay eggs thereon. 2 days after the release of the adults, the seedling is dipped in the dispersion for about 30 seconds. After air dried, the seedling is kept in a room at 25° C. 6 days after the dip treatment, the numbers of the dead and alive insects are counted. The corrected mortality rate is calculated according to the following formula and the insecticidal activity is evaluated according to the following criteria.

The test system of the next test is Laodelphax striatellus. The test can be described thus: Insecticidal test on Laodelphax striatellus (Example 16). Type of test: in vivo. The settings on record: 192 h, rice seedling dip, 3rd-instar nymphs, 8 days after inoculation, read-out: activity level (corrected mortality rate). On the procedure:
The compounds of formula (I), (Ia) and/or (Ib) of the present invention or salts thereof are separately dispersed in water and diluted to 500 ppm and 50 ppm. Rice plant seedlings are dipped in the dispersion for about 30 seconds. After air dried, the seedlings are put into a separate glass test tube and inoculated with ten 3rd-instar nymphs of Laodelphax striatellus and then the glass test tube is kept in a room at 25° C. 8 days after the inoculation, the numbers of the dead and alive insects are counted. The corrected mortality rate is calculated according to the following formula and the insecticidal activity is evaluated according to the following criteria.

The next test relates to Myzus persicae. In words: Insecticidal test on Myzus persicae (Example 17). Type of test: in vivo. The settings on record: 144 h, foliar application on Chinese cabbage, 6 days after application, read-out: control efficacy level (control rate). An excerpt: The compounds of formula (I), (Ia) and/or (Ib) of the present invention or salts thereof are separately dispersed in water and diluted to 500 ppm and 50 ppm. Chinese cabbage plants are planted in plastic pots (diameter: 8 cm, height: 8 cm). Aphids (Myzus persicae) are propagated on the plants and then the number of surviving aphids is counted. The dispersion is applied to the foliage of the potted plants. After the plants are air dried, these are kept in a greenhouse. 6 days after the application, the number of the alive insects is counted on the plants. The control rate is calculated according to the following formula and the control efficacy is evaluated according to the following criteria. [formula] • Ta: the number of alive insects before the foliar application in a treated plot • T: the number of alive insects after the foliar application in a treated plot • Ca: the number of alive insects before the foliar application in an untreated plot • C: the number of alive insects after the foliar application in an untreated plot • A: the control rate is 100% • B: the control rate is 90 to 99% • C: the control rate is 80 to 89% • D: the control rate is 50 to 79%

Test [4] concerns adult R. sanguineus ticks. The test can be described thus: Contact activity against adult Rhipicephalus sanguineus (Example 5). The settings on record: coated vials, 48 hours post-treatment, read-out: EC50 (contact activity, percentage mortality). As to the method:
Compounds of formulae (I), (Ia) and/or (Ib) formulated in 100% DMSO are diluted in a solution containing acetone and Triton X-100 (0.02%). The resulting formulation is used to coat the inner walls of glass scintillation vials and the filter paper covering the cap of the vial. Once dried, ten adult R. sanguineus ticks are added to the vials. The vials are incubated at 24° C., 95% relative humidity, and 12 hours of light/12 hours of dark until evaluation. Ticks are visually evaluated for mortality at 48 hours post-treatment. Compound efficacy at a given dose is expressed as percentage mortality. A dose response series is implemented to determine EC50 values.

Setting [5] is: adult C. felis, bovine blood with sodium heparin, membrane feeding, 48 hours post-treatment, read-out: EC50 (ingestion activity, percentage mortality, alternative method).
The mark [6] stands for this setting: alternative method according to Example 7, mortality at 48 hours post-treatment, read-out: C. felis membrane feeding (ingestion/blood feeding) activity EC50.

Each structure is given as a SMILES string. pEC50: −log10 of the molar value.

What is called mortality is the percentage killed. As to `CCS(=N)(=O)c1cc(-c2cnn(C3CC3)c2)cnc1-c1nc2cc(C(F)(F)C(F)(F)F)cnc2n1C` (centres unmarked) [Compound 22], the pEC50 is 4.00 to 5.00 in test [1], above 6.00 in the test on adult C. felis fleas [2], above 6.00 with adult C. felis fleas [3] (setting [5]) and 6.01 in the test with adult C. felis fleas [3] (setting [6]). Also, in the test on Spodoptera litura, the mortality at 500 ppm is 100%. The mortality at 50 ppm with Plutella xylostella and in the test on Laodelphax striatellus was 100% throughout. Further, the pest or weed control at 50 ppm in the test with Myzus persicae is 100%.
Turning to `CCS(=N)(=O)c1cc(-c2cc(C3CC3)sn2)cnc1-c1nc2cc(C(F)(F)C(F)(F)F)cnc2n1C` (centres unmarked) [Compound 25], the pEC50 in test [1] is 4.00 to 5.00; with adult C. felis fleas [2], above 6.00; with adult C. felis fleas [3] (setting [5]) it was 5.00 to 6.00. The mortality at 50 ppm with Spodoptera litura and with Plutella xylostella was 100% each time. The mortality at 500 ppm in the test with Laodelphax striatellus was 100%. The pest or weed control at 50 ppm in the test with Myzus persicae was 100%.
As for `CCS(=N)(=O)c1cc(-c2cn(C3CC3)cn2)cnc1-c1nc2cc(C(F)(F)C(F)(F)F)cnc2n1C` (centres unmarked) [Compound 21], the pEC50 in test [1] was 4.00 to 5.00; in the test on adult C. felis fleas [2], above 6.00; in the test on adult C. felis fleas [3] (setting [5]) it was above 6.00; in the test on adult C. felis fleas [3] (setting [6]), 6.39. For the same molecule, the mortality at 500 ppm in the test with Spodoptera litura, in the test with Plutella xylostella and in the test on Laodelphax striatellus was 100% in each case. In the test on Myzus persicae, the pest or weed control at 500 ppm came out at 100%.
As for `CCS(=N)(=O)c1cc(-n2cc(C3CC3)cn2)cnc1-c1nc2cc(C(F)(F)C(F)(F)F)cnc2n1C` (centres unmarked) [Compound 27], the pEC50 in test [1] was above 5.00; in test [4] it was above 5.00; in the test on adult C. felis fleas [2], above 6.00; with adult C. felis fleas [3] (setting [5]), above 6.00; in the test with adult C. felis fleas [3] (setting [6]), 6.75. For the same molecule, the mortality at 500 ppm in the test with Spodoptera litura, with Plutella xylostella and in the test with Laodelphax striatellus was 100% in each case. For the same molecule, in the test on Myzus persicae, the pest or weed control at 500 ppm amounted to 100%.
As to `CCS(=N)(=O)c1cc(-c2noc(C3(C(F)(F)F)CC3)n2)cnc1-c1nc2cc(C(F)(F)C(F)(F)F)cnc2n1C` (centres unmarked) [Compound 3], the pEC50 in test [1] is above 5.00; in test [4] it was 4.00 to 5.00; in the test on adult C. felis fleas [2], above 6.00; in the test with adult C. felis fleas [3] (setting [5]), above 6.00; in the test with adult C. felis fleas [3] (setting [6]), 6.35. In addition, the mortality at 50 ppm in the test with Spodoptera litura, with Plutella xylostella and with Laodelphax striatellus was 100% each time. For the same molecule, the pest or weed control at 50 ppm in the test on Myzus persicae stood at 100%.
As to `CCS(=N)(=O)c1cc(-c2cc(C3CC3)ns2)cnc1-c1nc2cc(C(F)(F)C(F)(F)F)cnc2n1C` (centres unmarked) [Compound 20], the pEC50 is above 5.00 in test [1], 4.00 to 5.00 in test [4], above 6.00 in the test on adult C. felis fleas [2] and 5.00 to 6.00 in the test on adult C. felis fleas [3] (setting [5]). Further, the mortality at 50 ppm with Spodoptera litura, with Plutella xylostella and in the test with Laodelphax striatellus was 100% each time.
In the case of `CCS(=N)(=O)c1cc(-c2cnn(C3CC3)c2)cnc1-c1nc2cc(C(F)(F)C(F)(F)F)nnc2n1C` (centres unmarked) [Compound 30], the pEC50 was above 5.00 in test [1]; 4.00 to 5.00 in test [4]; above 6.00 in the test with adult C. felis fleas [2]; above 6.00 in the test with adult C. felis fleas [3] (setting [5]); 6.28 in the test on adult C. felis fleas [3] (setting [6]). Also, the mortality at 500 ppm in the test on Spodoptera litura, with Plutella xylostella and with Laodelphax striatellus was 100% throughout. For the same molecule, the pest or weed control at 500 ppm with Myzus persicae amounted to 100%.
On to `CCS(=N)(=O)c1cc(-c2noc(C3CC3)n2)cnc1-c1nc2cc(C(F)(F)C(F)(F)F)nnc2n1C` (centres unmarked) [Compound 8], for which the pEC50 is above 5.00 in test [1]; 4.00 to 5.00 in test [4]; 5.00 to 6.00 with adult C. felis fleas [2]; above 6.00 with adult C. felis fleas [3] (setting [5]); 6.19 in the test with adult C. felis fleas [3] (setting [6]). The mortality at 500 ppm with Plutella xylostella and in the test with Laodelphax striatellus was 100% in each case. Moreover, the pest or weed control at 500 ppm in the test with Myzus persicae turned out to be 100%.
Consider `CCS(=N)(=O)c1cc(-n2cc(C3CC3)cn2)cnc1-c1nc2cc(C(F)(F)C(F)(F)F)nnc2n1C` (centres unmarked) [Compound 34], for which the pEC50 in test [1] was 4.00 to 5.00. Further, the mortality at 500 ppm in the test on Spodoptera litura, with Plutella xylostella and in the test with Laodelphax striatellus was 100% throughout. The pest or weed control at 500 ppm in the test with Myzus persicae worked out at 100%.
With `CCS(=N)(=O)c1cc(-n2cc(C3(C#N)CC3)cn2)cnc1-c1nc2cc(C(F)(F)C(F)(F)F)cnc2n1C` (centres unmarked) [Compound 26], the pEC50 in the test with adult C. felis fleas [2] is above 6.00; in the test with adult C. felis fleas [3] (setting [5]), above 6.00; in the test on adult C. felis fleas [3] (setting [6]), 6.06. Besides, the mortality at 500 ppm in the test with Spodoptera litura, in the test on Plutella xylostella and with Laodelphax striatellus was 100% throughout. Moreover, the pest or weed control at 500 ppm in the test with Myzus persicae was 100%.
